Results published in patent US20250064789A1, “KETOAMIDE DERIVATIVES AND PHARMACEUTICAL USES THEREOF” (priority 2022, published 2025).

The compounds below were run against recombinant SARS-CoV-2 M^pro (Severe acute respiratory syndrome coronavirus 2 (2019-nCoV) (SARS-CoV-2), UniProt P0DTD1) (assay: Inhibition of SARS-CoV-2 M^pro enzyme activity (fluorescent substrate assay)). Settings: inhibition of SARS-CoV-2 M^pro enzyme activity; values given in μM; read-out: IC50.
Assay type: biochemical

Row | SMILES | IC50 [µM]
1 | O=C(NCc1ncno1)C(=O)[C@@H](Cc1ccccc1)NC(=O)c1ccccc1 [Compound 461] | 62.3 ± 2.07
2 | O=C(NCc1nccs1)C(=O)[C@@H](Cc1ccc(Cl)c(Cl)c1)NC(=O)c1ccccc1 [Compound 470] | 2.03 ± 0.07
3 | COc1cccnc1CNC(=O)C(=O)[C@@H](Cc1ccccc1)NC(=O)[C@@H](C)NC(=O)C1CCC(F)(F)CC1 [Compound 339] | 6.13 ± 0.22
4 | O=C(NCc1nccs1)C(=O)[C@@H](CC1CCCCC1)NC(=O)c1ccccc1 [Compound 468] | 10.5 ± 0.63

Same assay, conditions: inhibition of SARS-CoV-2 M^pro enzyme activity; values in nM; read-out: IC50

Row | SMILES | IC50 [µM]
5 | O=C(NCc1ccccn1)C(=O)[C@@H](Cc1ccccc1)NC(=O)[C@H]1COCCN1C(=O)CCC1CCC(F)(F)CC1 [Compound 291] | 0.0131 ± 0.0028
6 | CC(C)(NC(=O)[C@H](NC(=O)c1cnccn1)C1CCCCC1)C(=O)N[C@H](Cc1ccccc1)C(=O)C(=O)NCc1ccccn1 [Compound 180] | 0.0318 ± 0.0009
7 | C[C@@H](NC(=O)COc1ccccc1)C(=O)N[C@H](Cc1ccccc1)C(=O)C(=O)NCc1ccccn1 [Compound 61] | 0.0118 ± 0.0001
8 | CC(C)(OCc1cc(F)cc(Cl)c1)C(=O)N[C@H](Cc1ccccc1)C(=O)C(=O)NCc1ccccn1 [Compound 19] | 0.0452 ± 0.0012
9 | C[C@@H](NC(=O)COc1cccnc1)C(=O)N[C@H](Cc1ccccc1)C(=O)C(=O)NCc1ccccn1 [Compound 112] | 0.1126 ± 0.0005
10 | O=C(NCc1ccccn1)C(=O)[C@@H](Cc1ccccc1)NC(=O)[C@H]1Cc2ccccc2CN1C(=O)NCC1CC(F)(F)C1 [Compound 310] | 0.0124
11 | C[C@@H](NC(=O)c1cnn(-c2ccccc2)c1)C(=O)N[C@H](Cc1ccccc1)C(=O)C(=O)NCc1ccccn1 [Compound 132] | 0.158 ± 0.0262
12 | C[C@@H](OCc1ccc(Cl)c(Cl)c1)C(=O)N[C@H](Cc1ccccc1)C(=O)C(=O)NCc1ccc(Cl)cn1 [Compound 44] | 0.0217 ± 0.0021
13 | CC(Oc1ccc(C(F)(F)F)cc1)C(=O)N[C@H](C)C(=O)N[C@H](Cc1ccccc1)C(=O)C(=O)NCc1ccccn1 (stereo partly drawn) [Compound 96] | 0.0202 ± 0.0007
14 | O=C(NCc1ccccn1)C(=O)[C@@H](Cc1ccccc1)NC(=O)C1(NC(=O)[C@@H]2C[C@@H]3[C@H](C2)C3(F)F)CC1 [Compound 161] | 0.0153 ± 0.0016
15 | O=C(NCc1ccccn1)C(=O)[C@@H](Cc1ccccc1)NC(=O)[C@@H]1[C@H]2CCC[C@H]2CN1C(=O)c1cnccn1 [Compound 260] | 0.742 ± 0.0063
16 | CC(C)(NC(=O)c1cc(Cl)cc(OC(F)(F)F)c1)C(=O)N[C@H](Cc1ccccc1)C(=O)C(=O)NCc1ccccn1 [Compound 181] | 0.0166 ± 0.0003
17 | COC[C@@H](NC(=O)CC1CCC(F)(F)CC1)C(=O)N[C@H](Cc1ccccc1)C(=O)C(=O)NCc1nccs1 [Compound 394] | 0.0124 ± 0.0014
18 | CC(C)(OCc1ccc(F)c(F)c1)C(=O)N[C@H](Cc1ccccc1)C(=O)C(=O)NCc1ccccn1 [Compound 20] | 0.0152 ± 0.0002
19 | C[C@@H](NC(=O)c1cccc(F)c1)C(=O)N[C@H](Cc1ccccc1)C(=O)C(=O)NCc1ccccn1 [Compound 139] | 0.0243 ± 0.0023
20 | CC1=NN=C(C)C1C(=O)NC1(C(=O)N[C@H](Cc2ccccc2)C(=O)C(=O)NCc2ccccn2)CCC1 [Compound 212] | 0.346 ± 0.0099
21 | Cc1cnc(CNC(=O)C(=O)[C@@H](Cc2ccccc2)NC(=O)[C@@H](C)NC(=O)C2CCC(F)(F)CC2)s1 [Compound 356] | 0.0431 ± 0.0001
22 | O=C(N[C@H](C1CC1)C(F)(F)F)NC1(C(=O)N[C@H](Cc2ccccc2)C(=O)C(=O)NCc2ccccn2)CCC1 [Compound 307] | 0.026 ± 0.0021
23 | O=C(NCc1nccs1)C(=O)[C@@H](Cc1ccccc1)NC(=O)C1(NC(=O)C2CCCC(F)(F)C2)CC(F)(F)C1 (stereo partly drawn) [Compound 545] | 0.0269 ± 0.0002
24 | C[C@@H](NC(=O)Cc1cc(C(C)(C)C)nn1-c1ccccc1)C(=O)N[C@H](Cc1ccccc1)C(=O)C(=O)NCc1ccccn1 [Compound 64] | 0.0161 ± 0.0002
25 | C[C@@H](OCc1cc(F)cc(F)c1)C(=O)N[C@H](Cc1ccccc1)C(=O)C(=O)NCc1ccccn1 [Compound 2] | 0.0176 ± 0.0004

Row | SMILES | IC50 [µM]
26 | O=C(NCc1ccccn1)C(=O)[C@@H](Cc1ccccc1)NC(=O)C1(NC(=O)C2CC(F)(F)C2)CCC1 [Compound 204] | 0.0367 ± 0.0009
27 | O=C(CC1CCCC1)NC1(C(=O)N[C@H](Cc2ccccc2)C(=O)C(=O)NCc2ccccn2)CCC1 [Compound 197] | 0.0138 ± 0.0008
28 | O=C(NCc1nccs1)C(=O)[C@@H](Cc1ccccc1)NC(=O)c1ccccc1F [Compound 471] | 0.264 ± 0.004
29 | C=C[C@@H]1C[C@]1(NC(=O)C1CCC(F)(F)CC1)C(=O)N[C@H](Cc1ccccc1)C(=O)C(=O)NCc1ccccn1 [Compound 229] | 0.0338 ± 0.001
30 | Cc1cc(-c2cc(Cl)cc(C#N)c2)nn1C1(C(=O)N[C@H](Cc2ccccc2)C(=O)C(=O)NCc2nccs2)CC1 [Compound 517] | 0.0562 ± 0.0032
31 | CC(C)(C)C[C@@H](NC(=O)C1CCC(F)(F)CC1)C(=O)N[C@H](Cc1ccccc1)C(=O)C(=O)NCc1ccccn1 [Compound 224] | 0.0258 ± 0.0013
32 | C[C@@H](NC(=O)C1CCCCCC1)C(=O)N[C@H](Cc1ccccc1)C(=O)C(=O)NCc1nccs1 [Compound 370] | 0.0148 ± 0.0007
33 | O=C(NCc1ccccn1)C(=O)[C@@H](Cc1ccccc1)NC(=O)C1(NC(=O)C2CCCCCC2)CCC1 [Compound 195] | 0.0308 ± 0.0001
34 | O=C(CNC(=O)C1CCCCC1)N[C@H](Cc1ccccc1)C(=O)C(=O)NCc1ccccn1 [Compound 445] | 0.0218 ± 0.0003
35 | C[C@@H](OCc1ccccc1)C(=O)N[C@H](Cc1ccccc1)C(=O)C(=O)NCc1ccc(C(F)(F)F)cn1 [Compound 38] | 0.7963 ± 0.0011
36 | C[C@@H](NC(=O)CC1CCC(F)(F)CC1)C(=O)N[C@H](Cc1ccccc1)C(=O)C(=O)NCc1cscn1 [Compound 419] | 0.0098 ± 0.0001
37 | C[C@@H](NC(=O)c1ccc(Cl)c(Cl)c1)C(=O)N[C@H](Cc1ccccc1)C(=O)C(=O)NCc1ccccn1 [Compound 99] | 0.0278 ± 0.0011
38 | O=C(NCc1ccccn1)C(=O)[C@@H](Cc1ccccc1)NC(=O)[C@H]1Cc2ccccc2CN1C(=O)[C@@H](NC(=O)c1cnccn1)C1CCCCC1 [Compound 271] | 0.0115 ± 0.0001
39 | CC(C)[C@@H](NC(=O)C1CCC(F)(F)CC1)C(=O)N[C@H](Cc1ccccc1)C(=O)C(=O)NCc1ccccn1 [Compound 242] | 0.0268 ± 0.0018
40 | C[C@@H](OCc1c(F)cccc1F)C(=O)N[C@H](Cc1ccccc1)C(=O)C(=O)NCc1ccccn1 [Compound 3] | 0.411 ± 0.0282
41 | O=C(NCc1ccccn1)C(=O)[C@@H](Cc1ccccc1)NC(=O)C1(NC(=O)c2cc(OC(F)(F)F)ccc2F)CC1 [Compound 165] | 0.0203 ± 0.0002
42 | C[C@@H](NC(=O)C1CC2CCC1C2)C(=O)N[C@H](Cc1ccccc1)C(=O)C(=O)NCc1nccs1 (stereo partly drawn) [Compound 371] | 0.0317 ± 0.0026
43 | C[C@@H](NC(=O)COC(F)(F)F)C(=O)N[C@H](Cc1ccccc1)C(=O)C(=O)NCc1ccccn1 [Compound 80] | 0.0586 ± 0.0032
44 | COc1ccc(OC(C)C(=O)N[C@H](Cc2ccccc2)C(=O)C(=O)NCc2ccccn2)cc1 (stereo partly drawn) [Compound 57] | 0.351 ± 0.0068
45 | O=C(CC1CCC(F)(F)CC1)N[C@H](CC1CCCCC1)C(=O)N[C@H](Cc1ccccc1)C(=O)C(=O)NCc1ccccn1 [Compound 236] | 0.0414 ± 0.0001
46 | O=C(NCc1ccccn1)C(=O)[C@@H](Cc1ccccc1)NC(=O)C1(C(=O)NCc2cnccn2)CC1 [Compound 321] | 0.166 ± 0.0026

Row | SMILES | IC50 [µM]
47 | COc1ccc(CCCC(=O)N[C@H](C)C(=O)N[C@H](Cc2ccccc2)C(=O)C(=O)NCc2ccccn2)cc1 [Compound 63] | 0.0196 ± 0.0003
48 | O=C(Cc1cc(OC(F)(F)F)ccc1F)NC1(C(=O)N[C@H](Cc2ccccc2)C(=O)C(=O)NCc2ccccn2)CC1 [Compound 164] | 0.0132 ± 0.0005
49 | O=C(NCc1nccs1)C(=O)[C@@H](Cc1ccccc1)NC(=O)n1nc(C(F)(F)F)cc1-c1ccc(F)cc1 [Compound 531] | 0.598 ± 0.0028
50 | O=C(NCc1ccccn1)C(=O)[C@@H](Cc1ccccc1)NC(=O)C1(NC(=O)C2CCC(F)(F)CC2)Cc2ccccc2C1 [Compound 243] | 0.0184 ± 0.0001
51 | O=C(CC1CCC(F)(F)CC1)NC1(C(=O)N[C@H](Cc2ccccc2)C(=O)C(=O)NCc2ccccn2)Cc2ccccc2C1 [Compound 244] | 0.0151 ± 0.0001
52 | O=C(Cc1noc(C2CCC(F)(F)CC2)n1)N[C@H](Cc1ccccc1)C(=O)C(=O)NCc1nccs1 [Compound 533] | 0.069 ± 0.0069
53 | CC(C)(NC(=O)C1(F)CCCCC1)C(=O)N[C@H](Cc1ccccc1)C(=O)C(=O)NCc1ccccn1 [Compound 185] | 0.0097 ± 0.0007
54 | O=C(NCc1nccs1)C(=O)[C@@H](Cc1ccccc1)NC(=O)C1CC1C(=O)NC1CC(F)(F)C1 (stereo partly drawn) [Compound 555] | 0.4773 ± 0.0041
55 | O=C(Cc1ccccc1)N[C@H](Cc1ccccc1)C(=O)C(=O)NCc1nccs1 [Compound 474] | 0.949 ± 0.0399
56 | O=C(NCc1nccs1)C(=O)[C@@H](Cc1ccccc1)NC(=O)[C@H]1CC(F)(F)CN1C(=O)C1CCC(F)(F)C1 (stereo partly drawn) [Compound 404] | 0.0477 ± 0.001
57 | C[C@@H](NC(=O)COc1ccc(F)cc1)C(=O)N[C@H](Cc1ccccc1)C(=O)C(=O)NCc1ccccn1 [Compound 148] | 0.0117 ± 0.0024
58 | CC(C)(OCc1ccc(F)cc1)C(=O)N[C@H](Cc1ccccc1)C(=O)C(=O)NCc1nccs1 [Compound 484] | 0.0957 ± 0.0015
59 | O=C(CN1C(=O)CN(c2ccc(F)c(Cl)c2)C1=O)N[C@H](Cc1ccccc1)C(=O)C(=O)NCc1nccs1 [Compound 519] | 0.0327 ± 0.0031
60 | CC(Oc1ccc(Cl)cc1Cl)C(=O)N[C@H](C)C(=O)N[C@H](Cc1ccccc1)C(=O)C(=O)NCc1ccccn1 (stereo partly drawn) [Compound 88] | 0.0244
61 | O=C(CNC(=O)c1cc2ccccc2o1)N[C@H](Cc1ccccc1)C(=O)C(=O)NCc1ccccn1 [Compound 444] | 0.2143 ± 0.0012
62 | C[C@@H](NC(=O)COc1cccc(C#N)c1)C(=O)N[C@H](Cc1ccccc1)C(=O)C(=O)NCc1ccccn1 [Compound 115] | 0.0378 ± 0.003
63 | O=C(NCc1ccccn1)C(=O)[C@@H](Cc1ccccc1)NC(=O)[C@H]1Cc2ccccc2CN1C(=O)OC1CCC(F)(F)CC1 [Compound 312] | 0.0145 ± 0.0001
64 | C[C@@H](OCc1ccc(F)cc1)C(=O)N[C@H](Cc1ccccc1)C(=O)C(=O)NCc1ccc(Cl)cn1 [Compound 42] | 0.0176 ± 0.0004
65 | C[C@@H](NC(=O)C(C)(C)Oc1ccc(Cl)cc1F)C(=O)N[C@H](Cc1ccccc1)C(=O)C(=O)NCc1ccccn1 [Compound 82] | 0.0058 ± 0.0001
66 | CC(C)(NC(=O)NC1CCC(F)(F)CC1)C(=O)N[C@H](Cc1ccccc1)C(=O)C(=O)NCc1ccccn1 [Compound 301] | 0.0092 ± 0.0004
